Data as given in patent publication US20240285631A1, “METHODS OF TREATING VASCULAR MALFORMATIONS” (priority 2023, published 2024).
“Also recorded” adds a separate entry of the source.

Columns and labels:
[1] = system: retinal arteries of anti-BMP9/10-treated animals; assay: Arteriovenous identity immunostaining (JAGGED1, aSMA, ENDOMUCIN) of retinal flat-mounts, BMP9/10 Abs model; type: in vivo, mouse; conditions: P7
Text: FIG. 12A illustrates the timeline used for BMP9/10 Abs and CDK4/6i treatments in C57bl/6 pups. FIGS. 12B-F JAGGED1 (green) and IB4 (white) in (FIG. 12B), aSMA (green) and IB4 (white) staining in (FIG. 12D) and ENDOMUCIN (green) and IB4 (white) in (FIG. 12F) of retinal flat-mounts from control, BMP9/10 Abs-treated, BMP9/10 Abs- and CDK4/6i-treated P7 C57bl/6 animals. (A: artery; V: vein; white arrow heads: AVMs). Quantification of JAGGED1 fluorescence intensity in retinal arterial ECs (FIG. 12C), of aSMA arterial coverage (FIG. 12E) and ENDOMUCIN in retinal arteries (FIG. 12G) (N=4 animals/group, 10 to 14 region of interest analyzed/group. Data are mean±SEM, one-way ANOVA with Holm-Sidak's multiple comparison test, ns p>0.05; ***p<0.01). Scale bars: […].
Finally, we assessed the effects of Palbociclib treatment on arteriovenous identity in anti-BMP9/10-treated animals following the dosing protocol shown in FIG. 12A. […] Finally, ENDOMUCIN, which is enriched in veins and capillaries in control retinas, was ectopically expressed in arteries and AV shunts in the retinal vasculature of anti-BMP9/10-treated animals, compared to controls (FIGS. 12F and 12G).
Eyes from P7 pups were pre-fixed in 4% PFA for 20 min at room temperature (RT). The retinas were dissected out and permeabilized for 30 min at RT in 0.5% Triton X-100 and then incubated with antibodies in retina buffer (1% FBS, 3% BSA and 0.5% Triton X-100 in PBS1x) overnight at 4° C. Retinas were washed with PBS1X and incubated with secondary antibodies in retina buffer for 2 h at RT. Retinas were washed with PBS1X, mounted with DAKO mounting medium (DAKO) and imaged using confocal microscopy (LEICA SP8 and LASX software). Quantification of vascular progression, density, AVM numbers and vessel diameters in the retinal vasculature were performed with Image J software.

[2] = system: retinal ECs in veins and arteries; assay: Flow-mediated EC polarization (Golgi orientation) in retinal vessels, BMP9/10 Abs model; type: in vivo, mouse; conditions: BMP9/10 Abs + CDK4/6i
Text: FIG. 3C illustrates the polarity axis of each cell was defined as the angle between the direction of blood flow and the cell polarity axis, defined by a vector drawn from the center of the cell nucleus to the center of the Golgi apparatus. FIG. 3D illustrates EC polarization in arteries and veins of control, BMP9/10 Abs-treated, and BMP9/10 Abs- and CDK4/6i-treated animals. EC nuclei are immunostained with anti-ERG1,2,3 and Golgi apparatus with anti-GM130; ECs are labelled with IB4. […] FIG. 3E illustrates angular histograms showing the distribution of polarization angles of retinal ECs in arteries and veins from control, BMP9/10 Abs-treated, and BMP9/10 Abs- and CDK4/6i-treated P6 animals (N=6 to 8 retinas). FIG. 3F illustrates polarity index dot plots of ECs from arteries (A) and veins (V) from control, BMP9/10 Abs-treated, and BMP9/10 Abs- and CDK4/6i-treated P6 animals (N=6 to 8 retinas. Data are mean±SEM **p≤0.01, ns p>0.05). Two-Way ANOVA for independent measures was used. p≤0.05 was considered statistically significant. […] To analyze the orientation of the Golgi toward the direction of the flow in retinal vessels, we measured the angle formed by the vector nucleus/Golgi in each EC and the predicted blood flow vector in the vessel (as depicted in FIG. 3C). We also quantified the EC polarization using a polarity index^22 ranging from 1 (highly polarized) to 0 (random distribution).

HUVECs = assay: Agilent Seahorse mitochondrial stress test in HUVECs; type: cell-based, human; design: dose or concentration left out as unconfirmed; conditions: HUVECs pretreated with Palbociclib, vs control cells
Text: FIG. 4C illustrates representative traces of oxygen consumption rate (OCR) measured by Seahorse assay of control vs. CDK4/6i-treated HUVECs in response to oligomycin (ATP synthase inhibitor), BAM15 (mitochondrial uncoupler) and Antimycin A/Rotenone (mitochondrial respiratory chain complex III and I inhibitors) (N=6 independent experiments, Data are mean±SEM **p≤0.01, ns p>0.05). Two-way ANOVA for independent measures with Bonferonni's correction for statistical analysis. p<0.05 was considered statistically significant. The normality and homogeneity of variances assumptions were tested using Shapiro-Wilk test (p>0.05) and Mauchly's test of sphericity respectively. Quantification of mitochondrial activity expressed as basal OCR (FIG. 4D) and respiratory capacity (FIG. 4E) in control vs. CDK4/6i-treated HUVECs. […]
HUVECs (70% confluent) were treated with Palbociclib (3 mg/ml) for 12 h in EGM™2-Bulletkit™ medium (CC-3156 & CC-4176, Lonza) prior to seeding onto a Seahorse 24-well tissue culture plate (Agilent Technologies) in EMB-2 media (CC-3162 Lonza) supplemented with 0.1% FBS and Palbociclib (3 mg/ml). […] Oxygen consumption rate (OCR) was measured using a Seahorse XF24 Flux Analyzer (Agilent Technologies). […] Basal respiration was calculated by subtracting the average of the first three measurements by the average of the post-Antimycin A & Rotenone measurements. […]

[3] = system: vascular malformations in Alk1EC^iKO pups; assay: Retinal vasculature analysis in Alk1EC^iKO pups (HHT type 2 model); type: in vivo, mouse
Text: FIG. 5A illustrates a timeline used for tamoxifen (Tx) injection and CDK4/6i treatment of Alk1EC^iKO pups. FIG. 5B illustrates representative images showing retinal vasculature labelled with IB4 from control, Alk1EC^iKO, and Alk1EC^iKO+CDK4/6i-treated P5 animals. Bar graphs showing (FIG. 5C) quantification of AV shunt number per retina, (FIG. 5D) vascular density, and (FIG. 5E) vascular progression. (N=8 to 10 retinas/group, at least 4 mice). Data are mean±SEM, One-way ANOVA, *p≤0.05, **p≤0.01). FIG. 5F illustrates a timeline used for Tx injection and CDK4/6i treatment of Alk1EC^iKO pups for blue latex dye perfusion experiments. FIG. 5G illustrates blue latex dye vascular perfusion in brains from control, Alk1EC^iKO, and Alk1EC^iKO+CDK4/6i-treated P7 animals. […] FIG. 5H illustrates the quantification of left middle cerebral artery (MCA) and basilar artery (BA) in control, Alk1EC^iKO, and Alk1EC^iKO+CDK4/6i-treated animals. FIG. 5I illustrates the quantification of the number of latex filled veins in control, Alk1EC^iKO, and Alk1EC^iKO+CDK4/6i-treated animals. (N=4 to 6 mice/group. Data are mean±SEM, one-way ANOVA with Holm-Šidàk's multiple comparison test, *p≤0.05, **p≤0.01, ***p<0.001). Scale bar (G): 4 mm.
About 50% of HHT patients harbor mutations in the Acvrl1 gene^1, which encodes for the ALK1 receptor. To validate the clinical relevance of the use of Palbociclib for the treatment of HHT, we crossed Cdh5Cre^ERT2 mice with Alk1^flox/flox mice (6-8-week-old) to generate an endothelial-specific inducible deletion of Alk1 (referred to as Alk1EC^iKO), which is an established preclinical mouse model of human HHT type 2^12,25. Neonatal Alk1EC^iKO pups received a single i.p. injection of tamoxifen at P3 to induce Alk1 gene deletion and were then treated with Palbociclib via oral gavage at P4, and their retinal vasculature was analyzed at P5 (FIG. 5A). […] Due to the relatively short survival time post-tamoxifen induction in Alk1EC^iKO mice (approximately 48 hours), our study is limited to a single Palbociclib injection, which represents a technical challenge in exploring additional treatments. […] Single Cell RNA sequencing analysis of Palbociclib effects on endothelial arteriovenous identity in Alk1EC^iKO mice.
With bulk RNAseq analysis, we further investigated the effects of Palbociclib on these pathways in vivo on P7 retinal ECs from control pups or those treated with anti-BMP9/10, with or without CDK4/6i, as outlined in FIG. 2A. […] We also investigated the potential role of FLT1, a decoy receptor for VEFG-A, in the mechanism of action of Palbociclib, by injecting i.p. FLT1 blocking antibodies in Alk1EC^iKO mice simultaneously with CDK4/6i treatment (FIG. 8G).
All animal protocols and procedures were approved by the University of Virginia Animal Care and Use Committee and complied with all ethical regulations. Cdh5Cre^ERT21Rha^43 and Alk1^flox/flox were gifted from Drs. Ralf Adams and Paul Oh, respectively. R26p-Fucci2 (Fucci2) (Accession #CDB0203T)^44 and C57bl/6 mice were purchased from Riken and Jax, respectively. Cdh5Cre^ERT2 mice were crossed with Alk1^flox/flox mice (6-8-week-old) to generate Alk1EC^iKO pups. Cre activity in Alk1EC^iKO was induced in pups at P3 via a single intraperitoneal (i.p.) injection of Tamoxifen (Tx; Sigma T5648, […] of 4 mg/ml, resuspended in 10% ethanol and 90% corn oil). Alk1^flox/flox littermates were used as controls. Alk1EC^iKO mice were crossed with Fucci2 mice to generate Alk1EC^iKO-Fucci2 pups.

[4] = system: brain vascular anomalies in adult Alk1 mutant animals; assay: Brain vasculature of adult Alk1 mutant animals (HHT model); type: in vivo, mouse; conditions: 3 doses 120 mg/kg oral gavage at day 7, 9 and 11 after tamoxifen, 3 weeks after induction
Text: Euthanized animals have been perfused with colored reagent to visualize the blood vessels.

[5] = tamoxifen P3, Palbociclib P4, P5

CC(=O)c1c(C)c2cnc(Nc3ccc(N4CCNCC4)cn3)nc2n(C2CCCC2)c1=O [Palbociclib, 6-acetyl-8-cyclopentyl-5-methyl-2-[5-(1-piperazinyl)pyridine-2-ylamino]pyrido[2,3-d]pyrimidin-7(8H)-one]
JAG1 protein expression in retinal arterial ECs ([1]; BMP9/10 Abs + CDK4/6i vs BMP9/10 Abs only): increased in arterial ECs
ectopic arterial expression of ENDOMUCIN ([1]; BMP9/10 Abs + CDK4/6i): did not prevent the arterial expression of ENDOMUCIN
smooth muscle cell (aSMA) coverage of retinal arteries ([1]; BMP9/10 Abs + CDK4/6i): prevented the loss of SMC coverage on arteries
polarity of retinal ECs toward blood flow [2]: oriented similarly to controls
mitochondrial basal respiration (basal OCR) (HUVECs): significantly lower
respiratory capacity (OCR) (HUVECs): significantly lower
AV shunt number per retina (FLT1 experiment) ([3]; Alk1^iECKO mice, Palbociclib alone, vs untreated): developed less AV shunts
AV shunt number per retina with FLT1 blocking antibodies ([3]; Alk1^iECKO mice, Palbociclib plus i.p. FLT1 blocking antibodies (1.6 mg/kg)): numerous AV shunts, comparable to untreated
vascular density at the front of the retinal vascular plexi [3, 5]: prevented the formation of hyperdense and disorganized vascular networks
vascular progression [3, 5]: normalized vascular progression
number of AVMs (AV shunts) per retina ([3]; tamoxifen P3, Palbociclib oral gavage P4, retina at P5, vs untreated Alk1EC^iKO): significantly lower number of AVMs; also recorded: prevented the development of arterio-venous malformations
brain vascular anomalies in adult Alk1 mutant animals [4]: regressed anomalies observed in the brain vasculature; also recorded: regressed brain vascular anomalies
